Reference: patent publication US11013750B2, “Methods for treating and preventing nociceptive pain” (Aurin Biotech Inc., priority 2017, dated 2021)

Assays:
[1] = system: SH-SY5Y human neuroblastoma cells; assay: CH50 type analysis of inhibition of C3B cleavage, LDH release end point; format: cell-based; conditions: SH-SY5Y cells with undiluted human serum, 37° C. for 3 h, read-out: concentration to inhibit cell lysis by 50% (IC 50)
Method: To investigate efficacy of DAS, ATA, AQA and AHA and to inhibit C3B cleavage in SH-SY5Y human neuroblastoma cells, a CH50 type analysis was performed. Lactate dehydrogenase (LDH) release from dead cells was the end point. Reaction mixtures were: SH-SY5Y cells (10^5 cells in 1 ml DMEM/F-12 medium), 250 μL of undiluted human serum and 250 μL of DAS (3 μM), ATA (5 μM), AQA (5 μM), or AHA (5 μM). Mixtures were incubated at 37° C. for 3 h. 100 μl of cell free reaction mixtures were transferred to 96 well plates where they were mixed with a solution containing 15 μl lactate (36 mg/ml in PBS) plus 15 μl p-iodonitrotetrazolium violet (INT, 2 mg/ml in PBS). The enzymatic reaction was started by the addition of 15 μl of NAD^+/diaphorase solution (3 mg/ml NAD^+; 2.3 mg solid/ml diaphorase). After 1 h, optical densities were measured with a Model 450 microplate reader (Bio-Rad Laboratories, Richmond, Calif.) using a 490-nm filter. The amount of LDH released was expressed as a percentage of the value obtained in comparative wells where cells were 100% lysed by 0.1% Triton X-100.
Cell lysis was concentration dependent for each of the components investigated.

[2] = system: C5a formation (C5 convertase); assay: Blockade of C5a formation, western blotting; format: cell-based; conditions: SH-SY5Y cells, 10% human serum, zymosan 100 μg/ml, C1 inhibitor 5 μg/ml, 37° C. 1 h
Method: To verify that each of the inhibitors was acting by inhibiting formation of C5 convertase, western blotting experiments were carried out. Results are shown in illustrated in FIG. 4. SH-SY5Y human neuroblastoma cells (2×10^5 cells in 1 ml DMEM/F-12 medium including 10% human serum) were incubated with zymosan (100 μg/ml) in 24 well plates at 37° C. for 1 h with or without DAS (3 μM), ATA (5 μM), AQA (5 μM), or AHA (5 μM). To inhibit any classical pathway activation, C1 inhibitor (5 μg/ml) was added. Supernatants were obtained by centrifugation at 4000 g for 30 min through 30 K-filters (Amicon® Ultra-15, 30,000 NMWL, Millipore, Billerica, Mass.). The filtrates were dried and added to the loading buffer for SDS-PAGE (50-mM Tris (pH 6.8), 0.1% SDS, 0.1% bromophenol blue, and 10% glycerol). Proteins were separated in 10% polyacrylamide gels at 70V for 6 h. The proteins were then transferred to polyvinylidene difluoride (PVDF) membranes (Bio-Rad, CA) at 30 mA for 2 hours. After washing with PBS-T, the membranes were treated with a mouse monoclonal C5/C5a antibody (Abcam, Cambridge Mass., 1/2000) for 15 hours at 4° C. The membranes were then treated with an appropriate HRP-conjugated anti-mouse IgG (A3682, 1/3,000; Sigma) for 3 hours at room temperature. The bands were visualized with an enhanced chemiluminescent system and exposure to photographic film (Hyperfilm ECL; Amersham Pharmacia Biotech, Little Chalfont, UK).

IC50 [1]	Compound	C5a formation (western blot) ([2]; 3 μM)	C5a formation (western blot) ([2]; 5 μM)
550 nM	O=C(O)C1=CC(=C(c2ccc(O)c(C(=O)O)c2)c2ccc(O)c(C(=O)O)c2)C=CC1=O [ATA, aurin tricarboxylic acid]		
534 nM	aurin hexacarboxylic acid [AHA]		C5a was no longer formed
522 nM	aurin quadracarboxylic acid [AQA]		C5a was no longer formed

Compound	IC50 [1]	C5a formation (western blot) ([2]; 3 μM)	C5a formation (western blot) ([2]; 5 μM)
CC(=O)Oc1ccc(Cc2ccc(OC(C)=O)c(C(=O)O)c2)cc1C(=O)O [DAS, 5,5′-methylenebis(2-acetoxybenzoic) acid]	109 nM	C5a was no longer formed	
